Data taken from patent publication US10336730B2, “Substituted glycine derived FXIA inhibitors” (BRISTOL-MYERS SQUIBB COMPANY, priority 2015, dated 2019).

biological target: T1, purified human Factor XIa (Homo sapiens, UniProt P03951); assay: Factor XIa enzyme inhibition assay (chromogenic substrate S-2366), Ki; assay type: biochemical; settings: substrate S-2366, pH 7.4
T1 construct: purchased Haematologic Technologies
Protocol: The effectiveness of compounds of the present invention as inhibitors of the coagulation Factors XIa, VIIa, IXa, Xa, XIIa, plasma kallikrein, thrombin, chemytrypsin or trypsin can be determined using a relevant purified serine protease, respectively, and an appropriate synthetic substrate. The rate of hydrolysis of the chromogenic or fluorogenic substrate by the relevant serine protease was measured both in the absence and presence of compounds of the present invention. […] A decrease in the rate of absorbance or fluorescence change in the presence of inhibitor is indicative of enzyme inhibition. Such methods are known to one skilled in the art. The results of this assay are expressed as the inhibitory constant, Ki.
Factor XIa determinations were made in 50 mM HEPES buffer at pH 7.4 containing 145 mM NaCl, 5 mM KCl, and 0.1% PEG 8000 (polyethylene glycol; JT Baker or Fisher Scientific). Determinations were made using purified human Factor XIa at a final concentration of […] (Haematologic Technologies) and the synthetic substrate S-2366 (pyroGlu-Pro-Arg-pNA; CHROMOGENIX® or AnaSpec) at a concentration of 0.0002-0.001 M.
Values of Ki were determined by allowing the protease to react with the substrate in the presence of the inhibitor. Reactions were allowed to go for periods of 20-180 minutes (depending on the protease) and the velocities (rate of absorbance or fluorescence change versus time) were measured. The following relationships were used to calculate Ki values: (Vmax*S)/(Km+S) (vo−vs)/vs=I/(Ki*(1+S/Km)) for a competitive inhibitor with one binding site; or vs/vo=A+(B−A)/(1+(IC50/(I)^n)); and Ki=IC50/(1+S/Km) for a competitive inhibitor where: […]

T1 sequence (P03951 388-625 limits assumed): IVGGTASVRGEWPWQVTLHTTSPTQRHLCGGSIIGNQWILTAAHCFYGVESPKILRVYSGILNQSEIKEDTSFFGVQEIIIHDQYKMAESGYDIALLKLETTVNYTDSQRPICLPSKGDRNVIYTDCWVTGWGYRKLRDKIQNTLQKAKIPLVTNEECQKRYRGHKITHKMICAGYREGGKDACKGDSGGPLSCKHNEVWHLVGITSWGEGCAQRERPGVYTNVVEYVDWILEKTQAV
T1 sequence (P03951 19-387 partner limits assumed): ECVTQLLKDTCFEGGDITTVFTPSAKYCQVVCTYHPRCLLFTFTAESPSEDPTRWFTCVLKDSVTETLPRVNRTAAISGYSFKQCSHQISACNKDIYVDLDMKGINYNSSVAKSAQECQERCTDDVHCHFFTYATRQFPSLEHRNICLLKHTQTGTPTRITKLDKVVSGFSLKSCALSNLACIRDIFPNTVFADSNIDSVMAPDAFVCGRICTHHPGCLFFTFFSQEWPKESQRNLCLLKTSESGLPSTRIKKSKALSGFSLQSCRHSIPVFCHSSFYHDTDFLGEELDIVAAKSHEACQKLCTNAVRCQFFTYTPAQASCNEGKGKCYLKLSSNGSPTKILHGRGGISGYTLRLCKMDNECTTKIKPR

Row | Compound | Ki
1 | CCOC(=O)c1ccc(NC(=O)[C@H](Cc2ccccc2)n2cnc(-c3cc(Cl)ccc3-n3cc(Cl)nn3)cc2=O)cc1 [Example 42, ethyl (S)-4-(2-(4-(5-chloro-2-(4-chloro-1H-1,2,3-triazol-1-yl)phenyl)-6-oxopyrimidin-1(6H)-yl)-3-phenylpropanamido)benzoate] | 196 nM
2 | CCn1nc(C)cc1NC(=O)[C@H](Cc1ccccc1)n1cnc(-c2cc(Cl)ccc2-n2cc(Cl)nn2)cc1=O [Example 44, (S)-2-(4-(5-chloro-2-(4-chloro-1H-1,2,3-triazol-1-yl)phenyl)-6-oxopyrimidin-1(6H)-yl)-N-(1-ethyl-3-methyl-1H-pyrazol-5-yl)-3-phenylpropanamide] | 395 nM
3 | O=C(NCc1nccs1)[C@H](Cc1ccccc1)n1cnc(-c2cc(Cl)ccc2-n2cc(Cl)nn2)cc1=O [Example 50, (S)-2-(4-(5-chloro-2-(4-chloro-1H-1,2,3-triazol-1-yl)phenyl)-6-oxopyrimidin-1(6H)-yl)-3-phenyl-N-(thiazol-2-ylmethyl)propanamide] | 6590 nM
4 | Cc1cnc(CNC(=O)[C@H](Cc2ccccc2)n2cnc(-c3cc(Cl)ccc3-n3cc(Cl)nn3)cc2=O)cn1 [Example 51, (S)-2-(4-(5-chloro-2-(4-chloro-1H-1,2,3-triazol-1-yl)phenyl)-6-oxopyrimidin-1(6H)-yl)-N-((5-methylpyrazin-2-yl)methyl)-3-phenylpropanamide] | 1480 nM
5 | O=C([C@H](Cc1ccccc1)n1cnc(-c2cc(Cl)ccc2-n2cc(Cl)nn2)cc1=O)N1CCC(c2ccc(Cl)cc2)CC1 [Example 52, (S)-6-(5-chloro-2-(4-chloro-1H-1,2,3-triazol-1-yl)phenyl)-3-(1-(4-(4-chlorophenyl)piperidin-1-yl)-1-oxo-3-phenylpropan-2-yl)pyrimidin-4(3H)-one] | 4440 nM
6 | O=C1CN(C(=O)[C@H](Cc2ccccc2)n2cnc(-c3cc(Cl)ccc3-n3cc(Cl)nn3)cc2=O)CCN1 [Example 53, (S)-6-(5-chloro-2-(4-chloro-1H-1,2,3-triazol-1-yl)phenyl)-3-(1-oxo-1-(3-oxopiperazin-1-yl)-3-phenylpropan-2-yl)pyrimidin-4(3H)-one] | 7620 nM
7 | CN1[C@@H]2CC[C@H]1C[C@@H](NC(=O)[C@H](Cc1ccccc1)n1cnc(-c3cc(Cl)ccc3-n3cc(Cl)nn3)cc1=O)C2 [Example 54, (S)-2-(4-(5-chloro-2-(4-chloro-1H-1,2,3-triazol-1-yl)phenyl)-6-oxopyrimidin-1(6H)-yl)-N-((1R,3r,5S)-8-methyl-8-azabicyclo[3.2.1]octan-3-yl)-3-phenylpropanamide] | 3990 nM

Second part, the molecule after the results:

Row | Ki | Compound
8 | 208 nM | N#Cc1ccc(NC(=O)[C@H](Cc2ccccc2)n2cnc(-c3cc(Cl)ccc3-n3cc(Cl)nn3)cc2=O)cn1 [Example 43, (S)-2-(4-(5-chloro-2-(4-chloro-1H-1,2,3-triazol-1-yl)phenyl)-6-oxopyrimidin-1(6H)-yl)-N-(6-cyanopyridin-3-yl)-3-phenylpropanamide]
9 | 88.2 nM | COC(=O)Cc1ccc(NC(=O)[C@H](Cc2ccccc2)n2cnc(-c3cc(Cl)ccc3-n3cc(Cl)nn3)cc2=O)cc1 [Example 45, methyl (S)-2-(4-(2-(4-(5-chloro-2-(4-chloro-1H-1,2,3-triazol-1-yl)phenyl)-6-oxopyrimidin-1(6H)-yl)-3-phenylpropanamido)phenyl)acetate]
10 | 8.3 nM | O=C(Nc1ccc2[nH]cnc2c1)[C@H](Cc1ccccc1)n1cnc(-c2cc(Cl)ccc2-n2cc(Cl)nn2)cc1=O [Example 46, (S)-N-(1H-benzo[d]imidazol-5-yl)-2-(4-(5-chloro-2-(4-chloro-1H-1,2,3-triazol-1-yl)phenyl)-6-oxopyrimidin-1(6H)-yl)-3-phenylpropanamide]
11 | 154 nM | O=C(Nc1ccc2[nH]ccc2n1)[C@H](Cc1ccccc1)n1cnc(-c2cc(Cl)ccc2-n2cc(Cl)nn2)cc1=O [Example 47, (S)-2-(4-(5-chloro-2-(4-chloro-1H-1,2,3-triazol-1-yl)phenyl)-6-oxopyrimidin-1(6H)-yl)-3-phenyl-N-(1H-pyrrolo[3,2-b]pyridin-5-yl)propanamide]
